Source: patent US20240123079A1 (Seagen Inc., priority 2021, published 2024)

Key:
[1] = system: wild type (WT) murine bone marrow-derived macrophages; test: Bone marrow-derived macrophage assay, wild type; assay type: cell-based, mouse; details: 24 h
Experimental: Bone Marrow-Derived Macrophage Assay
Potency of the compounds described herein was evaluated using mouse bone-marrow derived macrophages cultured from wild type (C57BL/6J, the Jackson Laboratory #000664) or STING-deficient (C57BL/6J-Sting1^gt/J, the Jackson Laboratory #017537) mice. Briefly, mouse bone marrow cells were cultured for 7-10 days in RPMI-1640 (Gibco) with 10% heat-inactivated fetal bovine serum, Pen-Strep (100 U/mL-100 μg/mL, Gibco), HEPES (10 mM, Gibco)), sodium pyruvate (1 mM, Gibco), GlutaMAX (1×, Gibco), beta-mercaptoethanol (55 μM, Gibco) and 20-40 ng/mL murine M-CSF (Peprotech, #315-02). Cells were plated in a 96-well flat bottom tissue culture-treated clear polystyrene plate (Corning Costar #3596) at ˜100,000 cells per well in 200 μL with the indicated concentration of the compound. The supernatant was harvested at 24 hours and cytokines were measured using a Milliplex MAP mouse cytokine/chemokine magnetic bead panel assay kit (MCYTOMAG-70k custom 11-plex kit: MCP1, MIP1α, MIP1β, TNFα, IFNγ, IL-10, IL-12p70, IL-1β, IL-6, IP10, RANTES) and analyzed using a Luminex™ MAGPIX™ Instrument System.

786-O = test: Cancer cell direct cytotoxicity assay (CellTiter-Glo), 786-O; assay type: cell-based; details: Homo sapiens, 786-0, 96 h, free compound, read-out: Compound X50
Experimental: (§1) Bystander activity of ADCs was evaluated using Renca cancer cells and THP1-Dual™ cells (InvivoGen) which contain an IRF-Lucia luciferase reporter. Cells were cultured in RPMI-1640 (Gibco) with 10% heat-inactivated fetal bovine serum, Pen-Strep (100 U/ml-100 μg/ml, Gibco), HEPES (10 mM, Gibco), sodium pyruvate (1 mM, Gibco), MEM non-essential amino acids (1×, Gibco), GlutaMAX (1×, Gibco), and beta-mercaptoethanol (55 μM, Gibco). Renca cells were plated in a 96-well flat bottom tissue culture-treated clear polystyrene plate (Corning Costar #3596) at 50,000 cells per well in 100 μL. On the day following the initial plating, 50,000 THP1-Dual™ cells were added to each well with the indicated concentration of ADC in a total volume of 200 μL. Supernatant was harvested at 48 hours post addition of the THP1-Dual™ cells. To measure Lucia reporter signal, 10 μL of supernatant was combined with 40 μL of QUANTI-Luc™ Luminescence assay reagent (Invivogen PN: rep-qlc1) in a 96-well clear flat bottom tissue culture-treated black polystyrene plate (Corning Costar PN: 3603) and read on a Perkin Elmer Envision plate reader. In some experiments, HEK 293T cells engineered to express a murine protein typically expressed by immune cells (target antigen C— an immune cell antigen) were plated as above instead of Renca tumor cells. Cancer Cell Direct Cytotoxicity Assay
(§2) Cancer cells were counted and plated in 40 μL complete growth media in 384-well, white-walled tissue culture treated plates (Corning). Cell plates were incubated at 37° C. and with 5% CO2 overnight to allow the cells to equilibrate. Stock solutions containing ADCs or free drugs were serially diluted in RPMI-1640+20% fetal bovine serum (FBS). 10 μL of each concentration were then added to each cell plate in duplicate. Cells were then incubated at 37° C. and with 5% CO2 for 96 hours, upon which, the cell plates were removed from the incubator and allowed to cool to room temperature for 30 minutes prior to analysis. […] The luminescence of the samples was measured using an EnVision Multimode plate reader (Perkin Elmer, Waltham, MA). […]

A2058 = test: Cancer cell direct cytotoxicity assay (CellTiter-Glo), A2058; assay type: cell-based; details: Homo sapiens; A2058, 96 h, free compound; read-out: Compound X50
Experimental: as §1, §2

BxPC3 = test: Cancer cell direct cytotoxicity assay (CellTiter-Glo), BxPC3; assay type: cell-based; details: Homo sapiens, BXPC-3; BxPC3, 96 h, free compound; read-out: Compound X50
Experimental: as §1, §2

DEL = test: Cancer cell direct cytotoxicity assay (CellTiter-Glo), DEL; assay type: cell-based; details: Homo sapiens, 96 h, free compound, read-out: Compound X50
Experimental: as §1, §2

Karpas299 = test: Cancer cell direct cytotoxicity assay (CellTiter-Glo), Karpas299; assay type: cell-based; details: Homo sapiens, KARPAS-299; Karpas299, 96 h, free compound; read-out: Compound X50
Experimental: as §1, §2

L540cy = test: Cancer cell direct cytotoxicity assay (CellTiter-Glo), L540cy; assay type: cell-based; details: Homo sapiens, 96 h, free compound, read-out: Compound X50
Experimental: as §1, §2

Ls174T = test: Cancer cell direct cytotoxicity assay (CellTiter-Glo), Ls174T; assay type: cell-based; details: Homo sapiens, 96 h, free compound, read-out: Compound X50
Experimental: as §1, §2

MDAMB231 = test: Cancer cell direct cytotoxicity assay (CellTiter-Glo), MDAMB231; assay type: cell-based; details: Homo sapiens, MDA-MB-231; MDAMB231, 96 h, free compound; read-out: Compound X50
Experimental: as §1, §2

MOLM-13 = test: Cancer cell direct cytotoxicity assay (CellTiter-Glo), MOLM-13; assay type: cell-based; details: Homo sapiens; MOLM-13, 96 h, free compound; read-out: Compound X50
Experimental: as §1, §2

SU-DHL-4 = test: Cancer cell direct cytotoxicity assay (CellTiter-Glo), SU-DHL-4; assay type: cell-based; details: Homo sapiens; SU-DHL-4, 96 h, free compound; read-out: Compound X50
Experimental: as §1, §2

Renca cancer cells = test: Renca tumor model, in vivo anti-tumor activity and weight change; details: for anti-tumor activity / tumor growth delay: Renca tumor-bearing Balb/c mice
Experimental: In some experiments, Renca tumor cells were engineered to express the indicated murine or human target antigen.
When tumor volumes reached 100 mm^3, the mice were dosed with either compounds or ADCs by intraperitoneal or intravenous injection at the indicated dosing schedule and tumor volumes were monitored twice weekly. Compounds were formulated in 40% PEG400 in saline.
A syngeneic system was used to assess the ability of the STING agonist ADCs to induce immune responses in vivo and drive an anti-tumor immune response. The Renca system is a subcutaneous, mouse renal adenocarcinoma model. Female Balb/c mice were implanted with 2×10^6 Renca cells subcutaneously in the flank on day 0. When mean tumor size of 100 mm^3 (measured by using the formula Volume (mm^3)=0.5*Length*Width^2 where length is the longer dimension) was reached mice were randomized into treatment groups of ≥5 mice per group. Animals were then treated intraperitoneally (ADCs or compounds) or intravenously (compounds) with the indicated treatment every 7 days, for 3 doses total (or as indicated). Tumor length and width and the weight of the animals was measured throughout the study and tumor volume was calculated using the formula above. Animals were followed until the tumor volume reached ˜1000 mm^3; animals were then euthanized.

## CCn1nc(C)cc1C(=O)Nc1nc2cc(C(N)=O)cc(O)c2n1C/C=C/Cn1c(NC(=O)c2cc(C)nn2CC)nc2cc(C(N)=O)cc(OC)c21 [Compound 1, (E)-1-(4-(5-carbamoyl-2-(1-ethyl-3-methyl-1H-pyrazole-5-carboxamido)-7-hydroxy-1H-benzo[d]imidazol-1-yl)but-2-en-1-yl)-2-(1-ethyl-3-methyl-1H-pyrazole-5-carboxamido)-7-methoxy-1H-benzo[d]imidazole-5-carboxamide]
[1]
  cytokine production: induced cytokine production
786-O
  IC50: > 1000 nM
A2058
  IC50: > 1000 nM
BxPC3
  IC50: > 1000 nM
DEL
  IC50: 2 nM
Karpas299
  IC50: > 1000 nM
L540cy
  IC50: 31 nM
Ls174T
  IC50: > 1000 nM
MDAMB231
  IC50: > 1000 nM
MOLM-13
  IC50: 42 nM
SU-DHL-4
  IC50: > 1000 nM
Renca cancer cells; q7dx3
  anti-tumor activity / tumor growth delay: some tumor growth delay
Renca cancer cells; Renca tumor-bearing mice
  tolerability: well tolerated
Renca cancer cells; Renca tumor-bearing mice, q7dx3
  average weight loss after the 1st and 2nd dose: < 5%

## CCn1nc(C)cc1C(=O)Nc1nc2cc(C(N)=O)cc(OC)c2n1C/C=C/Cn1c(NC(=O)c2cc(C)nn2CC)nc2cc(C(N)=O)cc(OCCCNC)c21 [Compound 12a]
[1]
  cytokine production: induced cytokine production
786-O
  IC50: > 1000 nM
A2058
  IC50: > 1000 nM
BxPC3
  IC50: > 1000 nM
DEL
  IC50: 3 nM
Karpas299
  IC50: > 1000 nM
L540cy
  IC50: 83 nM
Ls174T
  IC50: > 1000 nM
MDAMB231
  IC50: > 1000 nM
MOLM-13
  IC50: 87 nM
SU-DHL-4
  IC50: > 1000 nM
Renca cancer cells; q7dx3
  anti-tumor activity / tumor growth delay: limited anti-tumor efficacy
